This data set concerns Drosophila embryos. The data set can be described thus: DMSO dose-response, development and hatching of Drosophila embryos. The class given is in vivo. The method, then: Initial studies examined the toxicity of DMSO in Drosophila embryos.
First it was shown that DMSO was not deleterious to normal embryonic development.
Broad dilution series were made of DMSO in PBS. Approximately 50 eggs were placed in each well of a 96 well plate containing these solutions. They were placed at 18° C. or at 25° C. and hatched offspring were counted at the end of embryonic development (36 hours at 18° and 24 hours at 25°). […] 100% of eggs produced normal larvae at concentrations as high as 5% in PBS, pH 7.2. At 7.5% DMSO the percentage declined dramatically to approximately 50% and by 10% DMSO, the percentage hatching was only ˜10%.

In the case of `C[S+](C)[O-]` [DMSO], the percentage hatching entry (7.5% DMSO in PBS) is on record as “Approximately 50%” and the percentage hatching (10% DMSO in PBS) is around 10%. Also, the “eggs that produced normal larvae” value (DMSO as high as 5% in PBS, pH 7.2) was 100%. Moreover, the “embryos in which normal development occurs” value (concentrations of DMSO as high as 5%) is recorded as 100%. Further, the “concentrations of DMSO at which embryonic development proceeds normally to eclosion” value (dose-response curves) was at most 5 % v/v. In addition, the “percentages surviving at 25° compared with 18°” value (solutions above 5% DMSO) is “always less than those kept at 18°”.

Values taken from patent US20080276327A1, “Methods and Compositions Related to Delivery of Chemical Compounds to Invertebrate Embryos” (UNIVERSITY OF UTAH RESEARCH FOUNDATION, priority 2004, published 2008).
